{"source": "patent US8193361B2", "about": "“I-alkynyl 2-aryloxyalkylamides and their use as fungicides” (Syngenta Limited, priority 2004, dated 2012)", "key": {"[1]": {"tested_on": "Puccinia recondita f. sp. tritici", "experiment": "Leaf disk assay, Puccinia recondita f. sp. tritici (wheat brown rust), preventive", "type": "in vivo", "conditions": "200 ppm; wheat leaf segments; assessed nine days after inoculation", "experimental": "The compounds were tested in a leaf disk assay, with methods described below. The test compounds were dissolved in DMSO and diluted into water to 200 ppm. In the case of the test on Pythium ultimum, they were dissolved in DMSO and diluted into water to 20 ppm.\nErysiphe graminis f. sp. hordei (barley powdery mildew): Barley leaf segments were placed on agar in a 24-well plate and sprayed with a solution of the test compound. After allowing to dry completely, for between 12 and 24 hours, the leaf disks were inoculated with a spore suspension of the fungus. After appropriate incubation the activity of a compound was assessed four days after inoculation as preventive fungicidal activity. Erysiphe graminis f. sp. tritici (wheat powdery mildew): Wheat leaf segments were placed on agar in a 24-well plate and sprayed with a solution of the test compound. After allowing to dry completely, for between 12 and 24 hours, the leaf disks were inoculated with a spore suspension of the fungus. After appropriate incubation the activity of a compound was assessed four days after inoculation as preventive fungicidal activity. […] After appropriate incubation the activity of a compound was assessed nine days after inoculation as preventive fungicidal activity. […] After appropriate incubation the activity of a compound was assessed four days after inoculation as preventive fungicidal activity."}, "Pyricularia oryzae": {"tested_on": "Pyricularia oryzae", "type": "in vivo", "conditions": "200 ppm; rice leaf segments; assessed four days after inoculation"}}}
{"smiles": "C#CC(C)(C)NC(=O)C(Oc1ccc2oc3ccccc3c2c1)SC", "note": "(centres unmarked) [1 (16)]", "values": [{"measurement": "control of fungal infection", "setting": "[1]", "result": "at least 60%"}]}
{"smiles": "CC#CC(C)(C)NC(=O)C(Oc1ccc2oc3ccccc3c2c1)SC", "note": "(centres unmarked) [4 (16), 2-(dibenzofuranyl-2-oxy)-2-methylthio-N-(2-methylpent-3-yn-2-yl)acetamide]", "values": [{"measurement": "control of fungal infection", "setting": "Pyricularia oryzae", "result": "at least 60%"}]}
